The values below come from US10251845B2, “Fatty acid cysteamine conjugates and their use as activators of autophagy” (Catabasis Pharmaceuticals, Inc., priority 2014, dated 2019).

The nature of data set [1]: Plasma stability, mouse plasma. Conditions: 5 μM, 0.5, 1 and 2 hour time points. Type of data set: in vitro ADME. On the procedure: (§1) The in vitro stability of the test compounds was studied in human, mouse, beagle and rat plasma (plasma was purchased from Bioreclamation). Plasma was diluted to 50% with PBS (pH 7.4). Test compounds were dissolved in DMSO to a final concentration of 10 mM and then diluted to 1 mM in MeOH. Incubations were carried at a test compound concentration of 5 μM with a final DMSO concentration of 2.5%. Plasma (198 μL) was added to 96-well plate and incubated at 37° C. for 30 minutes before the addition of […] of the test compound. The resulting mixture was then incubated at 37° C. for 2 hours. At appropriate time intervals (0, 30, 60 and 120 minutes), aliquots (50 μL) were removed and reactions were terminated by adding 200 μL of acetonitrile with an internal standard. Simultaneously, plasma samples containing Benflourex or Procaine (control compound) were terminated by adding 200 μL of acetonitrile internal standard. The sample plate was centrifuged at 3500 rpm for 45 minutes at 4° C. and the supernatant was transferred to a new plate for analysis by LC/MS-MS (Agilent Model No: HPLC: 1200, MS: 6410). […] A binary gradient consisting of 0.1% formic acid in water and 0.1% formic acid in methanol was used for analyte elution.

The nature of data set [2]: Plasma stability, rat plasma. Type of data set: in vitro ADME. As for the experimental part:
as §1

A further data set deals with TNF-α. Description: RT-PCR of TNF-α mRNA in LPS-stimulated THP-1 cells. The settings on record: 25 μM, LPS stimulation. The class given is cell-based. As for the experimental part:
(§2) THP-1 cells were obtained from ATCC® TIB202. THP-1 cells were maintained in RPMI1640 (Gibco® RPMI 1640) supplemented with 10% fetal bovine serum. DMEM (#11095) and fetal bovine serum (low endotoxin grade) (#10437) was obtained from Invitrogen.
(§3) Compounds II-3 and I-1 were first solubilized in 100% DMSO as 50 mM solution, and then diluted 1 to 200 in 1% BSA as a 10× stock solution of […], and series stock dilution (1 to 2 dilution) were carried out as needed. The 10× stock solution were added to the cell media and cells were incubated for 24 hours at 37° C. For LPS stimulation in THP-1 cells, compounds were added to the cell media for 6 hours at and at the end of 4 hours, 50 μg/ml final concentration of LPS (Sigma L3024) was added and cells were incubated for 2 hours. […] The total RNA was harvested, and the relative mRNA expression levels were assessed via RT-PCR with HPRT as the internal control. […] Significance was determined by student's t-test in comparison to control.
(§4) Total RNA was collected using RNeasy Plus Mini Kit (Qiagen #74136) and cDNA generated using SuperScriptIII (Invitrogen #18080-044) with random hexamers following the manufacturer's protocol. Relative mRNA expression levels were determined using TaqMan probes (Applied Biosystems, using the recommended best primer pairs) with HPRT (hypoxanthine phosphoryltransferase) as the internal control. […]

The test system of a further data set is IL-1β. Description: RT-PCR of IL-1β mRNA in LPS-stimulated THP-1 cells. The settings on record: 25 μM, LPS stimulation. Type of data set: cell-based. As for the experimental part: as §2, §3, §4

For the molecule `CC/C=C\C/C=C\C/C=C\C/C=C\C/C=C\C/C=C\CCC(=O)NCCSSC(C)(C)CNC(=O)c1cccnc1` [II-3, N-(2-((2-((4Z,7Z,10Z,13Z,16Z,19Z)-docosa-4,7,10,13,16,19-hexaenamido)ethyl)disulfanyl)-2-methylpropyl)nicotinamide], the “plasma stability (parent compound remaining)” value is given as “complete plasma stability” in data set [1]; “complete plasma stability” in data set [2] (rat plasma, 5 μM, 0.5, 1 and 2 hour time points). Moreover, the “plasma stability compared with II-2” value in data set [2] (summary of Example 17 (mouse and rat plasma)) is “better plasma stability”. For the same molecule, in the data set on TNF-α, the “TNF-α mRNA level” value is on record as “marked reduction”. Further, the “IL-1β mRNA level” value with IL-1β was “marked reduction”.
